Earlier results as cited in US9850267B2, “Crystalline fosaprepitant dicyclohexylamine salt and its preparation” (Navinta, LLC, priority 2015, dated 2017).

Conditions: white to off-white amorphous powder

For C[C@@H](O[C@H]1OCCN(Cc2nc(O)n(P(=O)(O)O)n2)[C@H]1c1ccc(F)cc1)c1cc(C(F)(F)F)cc(C(F)(F)F)c1 [Fosaprepitant dimeglumine, fosaprepitant dimeglumine], the solubility in water is listed as “freely soluble in water”.
